Laboratory results published in patent publication US5506217A, “Phosphonates as anti-cancer agents” (The University of British Columbia, priority 1994, dated 1996).

Legend:
WEHI-3B tumor = WEHI-3B tumor growth in BALB/C mice; assay type: in vivo; settings: for Tumor volume in cm^3: 500 μg (approx. 25 mg/Kg) daily IM
Description: After 3 days one group (n=5) of mice received 500 μg (approximately 25 mg/Kg body weight) of the phosphonate compound of the following formula daily by intramuscular (IM) injection. The size of the resulting tumor was measured using a caliper: [drawing 17]

WEHI-3B tumor cells [1] = test: colonogenic cell survival assay; assay type: cell-based; settings: Mus musculus, WEHI3B, 120 h, WEHI-3B, read-out: Colonies formed after 5 days (% of control)
Description: (§1) Inhibition of colony formation in soft agar medium (colonogenic cell survival assay) is a more rigorous and direct measurement of cell kill or growth inhibition, and reflects the anti-cancer activity of the test compound. Briefly, tumor cells were cultured in petri dishes in methylcellulose, with or without a phosphonate test compound, and the number of colonies formed during a 5-day incubation period were counted.
Table 17 tabulates data obtained with two differrent phosphonate analogs using a colonogenic assay. Colonogenic assay is one of the most trusted tests for determination of effectiveness of an anti-cancer agent. The test is based on the formation of tumor colonies in vitro in a methyl cellulose or soft agar medium. The following results were obtained with the formation of colonies in methyl cellulose medium after five days in the presence or absence of four phosphonate analogs, two with a thioalkyl chain and two with an alkyloxy chain.

L1210 tumor cells = test: colonogenic cell survival assay; assay type: cell-based; settings: Mus musculus, 120 h, L1210, read-out: Colonies formed after 5 days (% of control)
Description: as §1
The effectiveness of S-thioalkylphosphonate on the growth of a lymphoma cell line was also investigated. L1210 is a mouse B-Cell tumor (lymphoma), was tested in soft agar for susceptibility to the cytotoxic action of thioalkylphosphonate.

P388 tumor cells = test: colonogenic cell survival assay; assay type: cell-based; settings: Mus musculus, 120 h, P388, read-out: Colonies formed after 5 days (% of control)
Description: as §1
The efficacy of 4-hexadecylthio-3-methoxybutane phosphonocholine on the growth of a mouse […] tumor was evaluated. The P388 cell line was cultured in a soft agar in the presence and absence of various concentrations of thioalkylphosphonate for 5 days, the number of tumor colonies formed during this period of time was registered.

C-41 tumor cells = test: 3H-thymidine incorporation assay; assay type: cell-based; settings: Homo sapiens, read-out: Thymidine uptake (% of control)
Description: (§2) Experiments were performed using a number of different rumor cell lines. Tumor cells were cultured in RPMI-1640 medium supplemented with 10% fetal bovine serum, penicillin (50 units/mL), streptomycin (50 μg/mL) and mercaptoethanol (5 μg/mL) in an atmosphere of 5% CO2. The cells were passaged weekly by serial 1/10 to 1/10,000 dilutions. The cell viability and growth were constantly monitored by staining with trypan blue exclusion dye or the incorporation of tritiated thymidine.
(§3) Inhibition of ^3 H-thymidine incorporation into the DNA of cells by a test compound is an indirect measurement of cell kill or growth inhibition, and reflects the anti-cancer activity of the compound.
Tumor cells (2×104 ^4 cells/well) were placed in 200 μL of medium in 96-well plastic microtiter plates; a further 5 μL of medium either with or without phosphonate was added. After incubation for 24, 48 or 72 hours at 37° C. in a humidified atmosphere containing 5% CO2, the wells were pulsed with 0.1 μCi of ^3 H-thymidine for an additional 24 hours. The cells were then harvested using a Brandel cell harvester (model M-12) and collected on Whatman glass microfilters. The radioactivity associated with the filters was quantified in a liquid scintillation counter, and the amount of ^3 H-thymidine incorporated into tumor cells treated with the phosphonate compound was calculated as a percentage of the amount of ^3 H-thymidine incorporated into untreated tumor cells.
It has been discovered that a phosphonate compound of the following structure: [drawing 21] inhibits thymidine incorporation into DNA of a human cervical carcinoma (C-41 ) cell line. This effect is indicative of the anti-cancer activity of the above compound.

WEHI-3B tumor cells [2] = test: 3H-thymidine incorporation assay; assay type: cell-based; settings: Mus musculus, WEHI3B, read-out: Thymidine uptake (% of control)
Description: as §2, §3
Tumor cells (2×104 ^4 cells/well) were placed in 200 μL of medium in 96-well plastic microtiter plates; a further 5 μL of medium either with or without phosphonate was added. […] The cells were then harvested using a Brandel cell harvester (model M-12) and collected on Whatman glass microfilters. The radioactivity associated with the filters was quantified in a liquid scintillation counter, and the amount of ^3 H-thymidine incorporated into tumor cells treated with the phosphonate compound was calculated as a percentage of the amount of ^3 H-thymidine incorporated into untreated tumor cells.
The biological activities of 4-hexadecylthio-3(S ) -3-methoxybutane-l-phosponocholine and its enantiomer 4-hexadecylthio-3(R)-3-methoxybutane-1-phosphonocholine were studied on several cancer cell lines. […] The cell viability, was determined as percent[^3 H]thymidine uptake into the cell DNA. The following results are mean of five samples ± S.D.

[3] = test system: Lewis lung carcinoma cells; test: LLC tumor growth in BALB/C mice; assay type: in vivo; settings: for Tumor volume (mm^3): 50 mg/day orally once a day from day 3
Description: BALB/C mice were injected with […] lung carcinoma cells under the skin at the back. Three days after injection of the rumor cells, treatment with the phosphonate shown above (compound VI) (50 mg/day orally once a day) was initiated in one group of mice, while a second group of mice received only the carrier, mucilage of tragacanth.

**Q.** How did the “effect on tumor growth (in words)” value (WEHI-3B tumor; 25 mg/Kg body weight per day, intramuscularly) turn out when CCCCCCCCCCCCCCCCOCC(CP(=O)([O-])OCC[N+](C)(C)C)OC (centres unmarked) [compound VII] was run?
**A.** Its value is “delayed the onset of tumor growth and reduced the tumor growth significantly”.

**Q.** What about the “Tumor volume in cm^3” value (WEHI-3B tumor; day 3 after implantation) of the same compound?
**A.** The value was 0.000 ± 0.000 cm^3.

**Q.** And the “Tumor volume in cm^3” value (WEHI-3B tumor; day 15 after implantation)?
**A.** The value was 0.000 ± 0.000 cm^3.

**Q.** What about the “Tumor volume in cm^3” value (WEHI-3B tumor; day 17 after implantation) of the same compound?
**A.** Its value is 0.000 ± 0.000 cm^3.

**Q.** And the “Tumor volume in cm^3” value (WEHI-3B tumor; day 20 after implantation)?
**A.** Its value is 0.036 ± 0.010 cm^3.

**Q.** What about the “Tumor volume in cm^3” value (WEHI-3B tumor; day 22 after implantation) of the same compound?
**A.** Its value is 0.117 ± 0.017 cm^3.

**Q.** What about the “Tumor volume in cm^3” value (WEHI-3B tumor; day 24 after implantation) of the same compound?
**A.** The value was 0.172 ± 0.025 cm^3.

**Q.** What about the activity at 1.25 µM (WEHI-3B tumor cells [1]; 1.25 μM) of the same compound?
**A.** Its activity at 1.25 µM is 88%.

**Q.** And the activity at 2.5 µM (WEHI-3B tumor cells [1]; 2.5 μM)?
**A.** Its activity at 2.5 µM is 60%.

**Q.** And the activity at 5 µM (WEHI-3B tumor cells [1]; 5 μM)?
**A.** Its activity at 5 µM is 48%.

**Q.** And the activity at 10 µM (WEHI-3B tumor cells [1]; 10 μM)?
**A.** The activity at 10 µM was 34%.

**Q.** What about the activity at 20 µM (WEHI-3B tumor cells [1]; 20 μM) of the same compound?
**A.** Its activity at 20 µM is 13%.

**Q.** And the activity at 40 µM (WEHI-3B tumor cells [1]; 40 μM)?
**A.** The activity at 40 µM was 2%.

**Q.** And the activity at 1.25 µM (L1210 tumor cells; 1.25 μM)?
**A.** Its activity at 1.25 µM is 91 ± 7%.

**Q.** And the activity at 2.5 µM (L1210 tumor cells; 2.5 μM)?
**A.** The activity at 2.5 µM was 80 ± 11%.

**Q.** And the activity at 5 µM (L1210 tumor cells; 5 μM)?
**A.** The activity at 5 µM was 55 ± 4%.

**Q.** And the activity at 10 µM (L1210 tumor cells; 10 μM)?
**A.** The activity at 10 µM was 42 ± 5%.

**Q.** What about the activity at 20 µM (L1210 tumor cells; 20 μM) of the same compound?
**A.** Its activity at 20 µM is 22 ± 3%.

**Q.** And the activity at 40 µM (L1210 tumor cells; 40 μM)?
**A.** Its activity at 40 µM is 14 ± 5%.

**Q.** And the activity at 1.25 µM (P388 tumor cells; 1.25 μM)?
**A.** The activity at 1.25 µM was 88 ± 6%.

**Q.** And the activity at 2.5 µM (P388 tumor cells; 2.5 μM)?
**A.** Its activity at 2.5 µM is 79 ± 8%.

**Q.** And the activity at 5 µM (P388 tumor cells; 5 μM)?
**A.** Its activity at 5 µM is 61 ± 7%.

**Q.** What about the activity at 10 µM (P388 tumor cells; 10 μM) of the same compound?
**A.** The activity at 10 µM was 56 ± 7%.

**Q.** What about the activity at 20 µM (P388 tumor cells; 20 μM) of the same compound?
**A.** The activity at 20 µM was 29 ± 4%.

**Q.** What about the activity at 40 µM (P388 tumor cells; 40 μM) of the same compound?
**A.** The activity at 40 µM was 16 ± 2%.

**Q.** Which activity at 2.5 µM (C-41 tumor cells; C4-1, 2.5 μM) does the source give for CCCCCCCCCCCCCCCCCCOCC(CCP(=O)([O-])OCC[N+](C)(C)C)OC (centres unmarked) [compound VI] here?
**A.** The activity at 2.5 µM was 88%.

**Q.** What about the activity at 5 µM (C-41 tumor cells; C4-1, 5 μM) of the same compound?
**A.** Its activity at 5 µM is 63%.

**Q.** And the activity at 10 µM (C-41 tumor cells; C4-1, 10 μM)?
**A.** The activity at 10 µM was 42%.

**Q.** What about the activity at 20 µM (C-41 tumor cells; C4-1, 20 μM) of the same compound?
**A.** Its activity at 20 µM is 41%.

**Q.** What about the activity at 40 µM (C-41 tumor cells; C4-1, 40 μM) of the same compound?
**A.** Its activity at 40 µM is 16%.

**Q.** What about the activity at 1.25 µM (WEHI-3B tumor cells [2]; 24 h, Day 1) of the same compound?
**A.** Its activity at 1.25 µM is 95%.

**Q.** What about the activity at 2.5 µM (WEHI-3B tumor cells [2]; 24 h, Day 1) of the same compound?
**A.** The activity at 2.5 µM was 72%.

**Q.** What about the activity at 5 µM (WEHI-3B tumor cells [2]; 24 h, Day 1) of the same compound?
**A.** Its activity at 5 µM is 34%.

**Q.** What about the activity at 10 µM (WEHI-3B tumor cells [2]; 24 h, Day 1) of the same compound?
**A.** The activity at 10 µM was 18%.

**Q.** And the activity at 20 µM (WEHI-3B tumor cells [2]; 24 h, Day 1)?
**A.** The activity at 20 µM was 8%.

**Q.** And the activity at 40 µM (WEHI-3B tumor cells [2]; 24 h, Day 1)?
**A.** Its activity at 40 µM is 3%.

**Q.** And the activity at 1.25 µM (WEHI-3B tumor cells [2]; 48 h, Day 2)?
**A.** The activity at 1.25 µM was 84%.

**Q.** What about the activity at 2.5 µM (WEHI-3B tumor cells [2]; 48 h, Day 2) of the same compound?
**A.** Its activity at 2.5 µM is 67%.

**Q.** And the activity at 5 µM (WEHI-3B tumor cells [2]; 48 h, Day 2)?
**A.** Its activity at 5 µM is 22%.

**Q.** And the activity at 10 µM (WEHI-3B tumor cells [2]; 48 h, Day 2)?
**A.** Its activity at 10 µM is 13%.

**Q.** And the activity at 20 µM (WEHI-3B tumor cells [2]; 48 h, Day 2)?
**A.** The activity at 20 µM was 2%.

**Q.** And the activity at 40 µM (WEHI-3B tumor cells [2]; 48 h, Day 2)?
**A.** Its activity at 40 µM is 2%.

**Q.** And the activity at 1.25 µM (WEHI-3B tumor cells [2]; 72 h, Day 3)?
**A.** Its activity at 1.25 µM is 77%.

**Q.** What about the activity at 2.5 µM (WEHI-3B tumor cells [2]; 72 h, Day 3) of the same compound?
**A.** The activity at 2.5 µM was 54%.

**Q.** And the activity at 5 µM (WEHI-3B tumor cells [2]; 72 h, Day 3)?
**A.** The activity at 5 µM was 12%.

**Q.** And the activity at 10 µM (WEHI-3B tumor cells [2]; 72 h, Day 3)?
**A.** Its activity at 10 µM is 10%.

**Q.** And the activity at 20 µM (WEHI-3B tumor cells [2]; 72 h, Day 3)?
**A.** Its activity at 20 µM is 1%.

**Q.** What about the activity at 40 µM (WEHI-3B tumor cells [2]; 72 h, Day 3) of the same compound?
**A.** The activity at 40 µM was 2%.

**Q.** What about the “Tumor volume (mm^3)” value ([3]; day 0 after tumor injection) of the same compound?
**A.** Its value is 0 mm^3.

**Q.** And the “Tumor volume (mm^3)” value ([3]; day 7 after tumor injection)?
**A.** Its value is 0 mm^3.

**Q.** What about the “Tumor volume (mm^3)” value ([3]; day 10 after tumor injection) of the same compound?
**A.** Its value is 0 mm^3.

**Q.** And the “Tumor volume (mm^3)” value ([3]; day 17 after tumor injection)?
**A.** Its value is 100 mm^3.

**Q.** What about the “Tumor volume (mm^3)” value ([3]; day 18 after tumor injection) of the same compound?
**A.** The value was 175 mm^3.

**Q.** And the “Tumor volume (mm^3)” value ([3]; day 20 after tumor injection)?
**A.** Its value is 252 mm^3.

**Q.** What about the “Tumor volume (mm^3)” value ([3]; day 22 after tumor injection) of the same compound?
**A.** Its value is 500 mm^3.

**Q.** And the “retardation of tumor growth” value ([3]; versus untreated animals, 50 mg/day orally once a day)?
**A.** Its value is “approximately 6 days”.
